Laboratory results taken from patent US11324725B2, “Compositions and methods for the inhibition of pruritus” (The United States of America, as represented by the …, priority 2017, dated 2022).
Entries after “also recorded” stand apart in the source; their conditions may differ. Where two headings read alike, the source gives them in different places.

Key:
hNpr1 [1] = biological target: T1, hNpr1 (Homo sapiens, UniProt P16066); test: Cell-free hNpr1 membrane cyclase assay (cGMP ELISA); type: biochemical
T1 sequence (P16066 33-1061): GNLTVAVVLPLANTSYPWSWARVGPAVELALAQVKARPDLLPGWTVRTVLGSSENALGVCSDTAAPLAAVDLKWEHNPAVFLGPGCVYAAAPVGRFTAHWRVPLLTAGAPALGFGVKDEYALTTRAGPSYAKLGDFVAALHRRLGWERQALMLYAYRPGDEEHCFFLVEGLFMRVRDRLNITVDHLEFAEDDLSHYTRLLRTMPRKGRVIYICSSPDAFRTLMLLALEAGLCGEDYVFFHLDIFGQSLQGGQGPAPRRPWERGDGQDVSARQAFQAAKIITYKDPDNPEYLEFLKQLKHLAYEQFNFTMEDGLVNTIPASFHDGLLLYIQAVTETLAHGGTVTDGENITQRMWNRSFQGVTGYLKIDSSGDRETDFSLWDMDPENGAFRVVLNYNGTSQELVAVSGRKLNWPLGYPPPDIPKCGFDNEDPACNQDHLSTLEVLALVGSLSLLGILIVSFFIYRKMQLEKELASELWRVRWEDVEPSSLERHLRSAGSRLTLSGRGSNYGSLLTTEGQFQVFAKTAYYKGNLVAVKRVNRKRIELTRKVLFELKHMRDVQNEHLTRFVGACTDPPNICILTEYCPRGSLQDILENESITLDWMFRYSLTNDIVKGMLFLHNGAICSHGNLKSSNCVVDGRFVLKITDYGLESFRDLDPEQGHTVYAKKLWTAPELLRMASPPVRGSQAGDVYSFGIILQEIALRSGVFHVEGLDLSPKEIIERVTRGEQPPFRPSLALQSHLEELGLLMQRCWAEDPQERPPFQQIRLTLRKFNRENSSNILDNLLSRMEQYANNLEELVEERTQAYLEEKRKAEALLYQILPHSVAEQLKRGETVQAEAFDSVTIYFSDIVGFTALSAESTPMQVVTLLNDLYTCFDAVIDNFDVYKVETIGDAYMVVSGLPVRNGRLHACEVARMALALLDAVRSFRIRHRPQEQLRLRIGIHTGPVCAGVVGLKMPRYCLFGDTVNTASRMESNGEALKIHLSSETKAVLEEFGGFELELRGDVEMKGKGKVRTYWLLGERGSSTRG

hNpr1 [2] = biological target: T1, hNpr1; test: qHTS GloSensor cGMP assay, hNppa-stimulated HEK-hNpr1-cGMP-sensor cells (1536-well); type: cell-based; settings: for Imax, HEK-hNpr1-cGMP-sensor cells: −100% = 38.3 μM A-71915; for Inhibition of hNppa-induced hNpr1 activity (in words): HEK-hNpr1-cGMP-sensor cells
Description: In order to identify small molecular compounds that inhibit the Npr1 receptor a high-throughput assay to probe inhibition of the receptor guanylate cyclase Npr1 was developed. The assay was designed taking advantage of Promega's GloSensor™ technology (Promega, Madison, Wis.). This technology involves the expression of a cyclic guanosine monophosphate (cGMP) biosensor, comprised of a firefly luciferase variant that was coupled to the cGMP binding domain of human phosphodiesterase 5A, and loading of cells with a cell-permeable luciferase substrate to monitor cGMP production by Npr1 in real time in live cells. Briefly, human embryonic kidney 293 cells stably expressing the human Npr1 and the pGloSensor™-40F cGMP vector (“pGloSensor™-40F”) were generated. Stimulating these cells with the Npr1 agonists human NppA or NppB, luciferase-induced light production could be detected in a dose-dependent manner. HEK293 cells stably expressing human Npr2 and pGS-40F and cells only expressing pGS-40F were also generated to conduct secondary counter screens. In these cells, NppC or sodium nitroprusside were used to stimulate Npr2 or soluble guanylate cyclase which is endogenously expressed in HEK293 cells, respectively. The Npr2-NppC counter screen was employed to search for agents that minimally effected this agonist-receptor interaction. The Npr2-NppC system was used because the side effects of most drugs occur on related receptors. Npr1 and Npr2 are the most related receptors in sequence and function and there are no additional active receptor subtypes in this family of receptors. The procedure is described in detail below.
Measurement of intracellular cGMP production in HEK-hNpr1-cGMP-sensor cells was scaled to 4 μl volumes in 1536-well format and primary screening was performed in an automated manner in 7- to 11-point qHTS. Cells (1.5×10^3) were plated in assay medium in white, solid bottom TC treated 1536-well plates (Greiner Bio-One) with a Multidrop™ Combi Reagent Dispenser (Thermo Fisher Scientific). Cells were incubated at 37° C., 5% CO2 and 95% humidity for 16 hours and 1 μl of GloSensor™ reagent at a final assay concentration of 2% or assay medium as background control was added to respective wells with a BioRAPTR Flying Reagent Dispenser™ (Beckman Coulter, Schaumburg, Ill.). Cells were incubated at room temperature for 2 hours, protected from light. Compound (23 nl) was transferred by a pintool (Kalypsys, San Diego, Calif.) in the concentration range of […] to 46.1 μM along with DMSO and a titration of A-71915 from top concentration 38.3 μM to 1.7 nM in columns 1-4 of each plate as vehicle and positive controls, respectively. Cells were incubated with compound for 30 minutes at room temperature, protected from light. Pre-agonist luminescence for each plate was read on a ViewLux™ plate reader (PerkinElmer). Human NppA (1 μl) at a final assay concentration of 0.1 nM, or C02-independent media were added to respective wells with a BioRAPTR Flying Reagent Dispenser™ (Beckman Coulter). Plates were incubated for 20 minutes at room temperature, protected from light, and luminescence was read on a ViewLux™ plate reader.
Pre-agonist and post-agonist data were normalized by plate to corresponding intra-plate controls as described in Inglese et al., PNAS USA, 103: 11473-11478 (2006) (which is incorporated herein by reference, in its entirety). Assay statistics including S:N and Z′ were calculated using the same respective controls. Pre-agonist data were normalized to the average signal of DMSO-treated wells with 2% GoSensor™ reagent as 0% and the average signal of DMSO-treated wells with assay medium as −100% activity. Post-agonist data were normalized to the average signal of DMSO-treated wells with 2% GoSensor™ reagent and 0.1 nM hNppA as 0% and the average signal of wells treated with 38.3 μM A-71915 with 2% GloSensor™ reagent and 0.1 nM hNppA as −100% activity. […]

[3] = membranes of HEK-hNpr1-cGMP-sensor cells, hNppa-stimulated
[4] = Table 1, cell-based GloSensor assay of hNpr1 inhibition, read-out: IC50 GloSensor™ assay
[5] = qHTS follow-up, hNppa-stimulated, four-parameter fit, read-out: IC50, HEK-hNpr1-cGMP-sensor cells
[6] = qHTS follow-up, hNppa-stimulated
[7] = Table 1, biochemical assay, read-out: IC50 biochem assay
[8] = calculated with Cheng-Prusoff equation from Table 4, read-out: Ki hNpr1 cyclase assay [μM] (mean ± SEM)
[9] = membranes of HEK-hNpr1-cGMP-sensor cells, hNppa-stimulated, read-out: IC50 [μM] (mean ± SEM), membrane cyclase assay

SMILES | Ki (hNpr1 [1]) [µM] | IC50 (hNpr1 [1]; IC50 [μM] (mean ± SEM), membrane cyclase assay, membranes of HEK-hNpr1-cGMP-sensor cells, hNppa-stimulated) [µM] | IC50 (hNpr1 [1]; IC50 biochem assay (M), Table 1, biochemical assay) [µM] | Imax [%] (mean ± SEM), membrane cyclase assay (hNpr1 [1]; [3]) | IC50 (hNpr1 [2]; [4]) [nM] | IC50 (hNpr1 [2]; [5]) [nM] | Imax, HEK-hNpr1-cGMP-sensor cells (hNpr1 [2]; [6]) [%] | IC50 (hNpr1 [1]; [7]) [µM] | Ki (hNpr1 [1]; [8]) [µM] | IC50 (hNpr1 [1]; [9]) [µM] | Inhibition of hNppa-induced hNpr1 activity (in words) (hNpr1 [2])
COc1ccc(C2(C(=O)N3CCC4(CC3)c3nccn3-c3ccccc3CN4C)CC2)cc1 [JS-12, (1-(4-methoxyphenyl)cyclopropyl)(5-methyl-5,6-dihydrospiro[benzo[f]imidazo[1,2-a][1,4]diazepine-4,4′-piperidin]-1′-yl)methanone] | 0.1 ± 0.015 | 0.7 ± 0.1 | 0.614 | −99.0 ± 1.0 | 8910 | 16000 ± 1300 | −116 ± 11 | – | – | – | –
Cc1cc(CNC(=O)c2ccc3c(c2)n(CC2CC2)c(=O)n3C2CCCCC2)on1 [JS-11, 1-cyclohexyl-3-(cyclopropylmethyl)-N-((3-methylisoxazol-5-yl)methyl)-2-oxo-2,3-dihydro-1H-benzo[d]imidazole-5-carboxamide] | – | – | – | −99.7 ± 0.2 | 5620 | 21000 ± 1300 | −140 ± 13 | 1.14 | 0.21 ± 0.008 | 1.4 ± 0.1 | inhibit hNpr1 activity; also recorded: inhibits hNppa-induced hNpr1 activity; also recorded: antagonizes natriuretic peptide-induced activation
Cc1nn2c(c1-c1ccccc1OCc1ccccc1)N(C(=O)Cc1ccccn1)CCC2 [JS-9, 1-(3-(2-(benzyloxy)phenyl)-2-methyl-6,7-dihydropyrazolo[1,5-a]pyrimidin-4(5H)-yl)-2-(pyridin-2-yl)ethan-1-one] | – | – | – | −95.3 ± 4.5 | 8910 | 35000 ± 15000 | −106 ± 18 | 2.17 | 0.32 ± 0.262 | 2.2 ± 1.8 | –
O=C(Cc1ccc(Cl)cc1)N1Cc2ccccc2CC2(CCCN2CC2CCNC2)C1 (stereo not drawn) [JS-2, 2-(4-chlorophenyl)-1-(1′-(pyrrolidin-3-ylmethyl)-1,5-dihydrospiro[benzo[c]azepine-4,2′-pyrrolidin]-2(3H)-yl)ethan-1-one] | – | – | – | – | 13000 | 25000 ± 1300 | −102 ± 9 | – | – | – | –
O=C(NCc1cccnc1)c1cnc2[nH]nc(-c3ccccc3)c2n1 [JS-7, 3-phenyl-N-(pyridin-3-ylmethyl)-1H-pyrazolo[3,4-b]pyrazine-5-carboxamide] | – | – | – | −98.4 ± 1.5 | 22400 | 85000 ± 22000 | −216 ± 97 | 0.122 | 0.02 ± 0.044 | 0.1 ± 0.3 | –
Cc1noc(C)c1-c1cc(-c2ccccc2Oc2ccccc2)cn2cncc12 [JS-5, 3,5-dimethyl-4-(6-(2-phenoxyphenyl)imidazo[1,5-a]pyridin-8-yl)isoxazole] | – | – | – | −99.8 ± 0.1 | 28200 | 32000 ± 13000 | −127 ± 12 | 0.141 | 0.02 ± 0.02 | 0.1 ± 0.1 | inhibit hNpr1 activity; also recorded: inhibits hNppa-induced hNpr1 activity; also recorded: antagonizes natriuretic peptide-induced activation
Cc1nn2c(c1-c1ccccc1OCc1ccccc1)N(C(=O)Cc1ccc3c(c1)OCO3)CCC2 [JS-8, 2-(benzo[d][1,3]dioxol-5-yl)-1-(3-(2-(benzyloxy)phenyl)-2-methyl-6,7-dihydropyrazolo[1,5-a]pyrimidin-4(5H)-yl)ethan-1-one] | – | – | – | −98.0 ± 2.0 | 8910 | 13000 ± 1200 | −122 ± 9 | 0.336 | 0.05 ± 0.064 | 0.3 ± 0.4 | inhibit hNpr1 activity; also recorded: inhibits hNppa-induced hNpr1 activity; also recorded: antagonizes natriuretic peptide-induced activation
CCC(CC)c1cc([C@H]2CN3CC[C@H]2C[C@@H]3CNS(=O)(=O)c2cccs2)nc(-c2ccncc2)n1 [JS-3, N-(((2R,4S,5R)-5-(6-(pentan-3-yl)-2-(pyridin-4-yl)pyrimidin-4-yl)quinuclidin-2-yl)methyl)thiophene-2-sulfonamide] | – | – | – | −98.2 ± 1.8 | 14100 | 62000 ± 19000 | −183 ± 67 | 3.98 | 0.58 ± 0.179 | 4 ± 1.2 | –
N#Cc1ccccc1CN1CCCC(C(=O)NCc2ccccc2)CCNC(=O)CC1 (stereo not drawn) [JS-13, N-benzyl-1-(2-cyanobenzyl)-4-oxo-1,5-diazacycloundecane-8-carboxamide] | – | – | – | −94.4 ± 5.4 | 3980 | 10000 ± 1200 | −99 ± 6 | 1.19 | 0.12 ± 0.13 | 0.8 ± 0.9 | –
Cc1nn2c(c1-c1ccccc1Oc1ccccc1)N(C(=O)Cc1ccc3c(c1)OCO3)CCC2 [JS-10, 2-(benzo[d][1,3]dioxol-5-yl)-1-(2-methyl-3-(2-phenoxyphenyl)-6,7-dihydropyrazolo[1,5-a]pyrimidin-4(5H)-yl)ethan-1-one] | – | – | – | −95.2 ± 3.3 | 7940 | 17000 ± 1300 | −122 ± 12 | 0.744 | 0.11 ± 0.09 | 0.7 ± 0.6 | –
Cl.O=C1Nc2ccccc2CN(CC2CCCCC2)C12CCNCC2 [JS-1, 4-(cyclohexylmethyl)-4,5-dihydrospiro[benzo[e][1,4]diazepine-3,4′-piperidin]-2(1H)-one hydrochloride] | – | – | – | – | 7310 | 26000 ± 1500 | −119 ± 20 | – | – | – | –
